In ChEMBL document CHEMBL3885881, “DrugMatrix”:

Species on record: Rattus norvegicus
Assay: DrugMatrix - Regimen: Daily Repeat
Assay type: toxicity, organism-based, Sprague-Dawley
Design: regimen Daily Repeat, gender Male, age 6-8 weeks
Details: in vivo, po, 20 mg/kg, route oral GAVAGE, dose level High, vehicle 100 % WATER; for BASOPHIL / EOSINOPHIL / ERYTHROCYTE COUNT / HEMATOCRIT / HEMOGLOBIN / LEUKOCYTE COUNT / LYMPHOCYTE / MEAN CORPUSCULAR HEMOGLOBIN / MEAN CORPUSCULAR HEMOGLOBIN CONCENTRATION / MEAN CORPUSCULAR VOLUME / MONOCYTE / NEUTROPHIL / PLATELET COUNT: tissue Blood; for ALANINE AMINOTRANSFERASE / ALBUMIN / ALKALINE PHOSPHATASE / ASPARTATE AMINOTRANSFERASE / BLOOD UREA NITROGEN / CARBON DIOXIDE / CHLORIDE / CHOLESTEROL / CREATINE PHOSPHOKINASE / CREATININE / GLUCOSE / LACTATE DEHYDROGENASE / LIPASE / PHOSPHORUS / POTASSIUM / SODIUM / TOTAL BILIRUBIN / TOTAL PROTEIN / URIC ACID: tissue Plasma

**Q.** Which BASOPHIL (72 h, time 3 day) does the source give for `C=CC=O` [ACROLEIN] here?
**A.** 0.17%

**Q.** And the EOSINOPHIL (72 h, time 3 day)?
**A.** 1.23%

**Q.** And the “ERYTHROCYTE COUNT” value (72 h, time 3 day)?
**A.** 6.79 x10E6/uL

**Q.** And the HEMATOCRIT (72 h, time 3 day)?
**A.** 44.43%

**Q.** And the HEMOGLOBIN (72 h, time 3 day)?
**A.** 14.33 G/DL

**Q.** And the “LEUKOCYTE COUNT” value (72 h, time 3 day)?
**A.** 13.23 x10E3/uL

**Q.** What about the LYMPHOCYTE (72 h, time 3 day) of the same molecule?
**A.** 50.33%

**Q.** And the “MEAN CORPUSCULAR HEMOGLOBIN” value (72 h, time 3 day)?
**A.** 21.17 pg

**Q.** What about the “MEAN CORPUSCULAR HEMOGLOBIN CONCENTRATION” value (72 h, time 3 day) of the same molecule?
**A.** 32.27 G/DL

**Q.** And the “MEAN CORPUSCULAR VOLUME” value (72 h, time 3 day)?
**A.** 65.47 fL

**Q.** And the MONOCYTE (72 h, time 3 day)?
**A.** 5.93%

**Q.** And the NEUTROPHIL (72 h, time 3 day)?
**A.** 40.03%

**Q.** What about the “PLATELET COUNT” value (72 h, time 3 day) of the same molecule?
**A.** 1336 x10E3/uL

**Q.** And the “ALANINE AMINOTRANSFERASE” value (72 h, time 3 day)?
**A.** 33.67 u/L

**Q.** And the ALBUMIN (72 h, time 3 day)?
**A.** 3.47 G/DL

**Q.** What about the “ALKALINE PHOSPHATASE” value (72 h, time 3 day) of the same molecule?
**A.** 159 u/L

**Q.** What about the “ASPARTATE AMINOTRANSFERASE” value (72 h, time 3 day) of the same molecule?
**A.** 72.67 u/L

**Q.** What about the “BLOOD UREA NITROGEN” value (72 h, time 3 day) of the same molecule?
**A.** 13 mg/dL

**Q.** And the “CARBON DIOXIDE” value (72 h, time 3 day)?
**A.** 27.67 mmol/L

**Q.** And the CHLORIDE (72 h, time 3 day)?
**A.** 105.67 MEQ/L

**Q.** What about the CHOLESTEROL (72 h, time 3 day) of the same molecule?
**A.** 122.33 mg/dL

**Q.** What about the “CREATINE PHOSPHOKINASE” value (72 h, time 3 day) of the same molecule?
**A.** 216.67 u/L

**Q.** What about the CREATININE (72 h, time 3 day) of the same molecule?
**A.** 0.43 mg/dL

**Q.** What about the GLUCOSE (72 h, time 3 day) of the same molecule?
**A.** 151.67 mg/dL

**Q.** And the “LACTATE DEHYDROGENASE” value (72 h, time 3 day)?
**A.** 35 u/L

**Q.** And the LIPASE (72 h, time 3 day)?
**A.** 24.33 u/L

**Q.** What about the PHOSPHORUS (72 h, time 3 day) of the same molecule?
**A.** 11.6 mg/dL

**Q.** And the POTASSIUM (72 h, time 3 day)?
**A.** 5.87 MEQ/L

**Q.** And the SODIUM (72 h, time 3 day)?
**A.** 148 MEQ/L

**Q.** And the “TOTAL BILIRUBIN” value (72 h, time 3 day)?
**A.** 0.27 mg/dL

**Q.** What about the “TOTAL PROTEIN” value (72 h, time 3 day) of the same molecule?
**A.** 5.43 G/DL

**Q.** What about the “URIC ACID” value (72 h, time 3 day) of the same molecule?
**A.** 1.27 mg/dL

**Q.** And the BASOPHIL (120 h, time 5 day)?
**A.** 0.23%

**Q.** What about the EOSINOPHIL (120 h, time 5 day) of the same molecule?
**A.** 0.37%

**Q.** And the “ERYTHROCYTE COUNT” value (120 h, time 5 day)?
**A.** 7 x10E6/uL

**Q.** What about the HEMATOCRIT (120 h, time 5 day) of the same molecule?
**A.** 45.17%

**Q.** And the HEMOGLOBIN (120 h, time 5 day)?
**A.** 14.17 G/DL

**Q.** What about the “LEUKOCYTE COUNT” value (120 h, time 5 day) of the same molecule?
**A.** 18.4 x10E3/uL

**Q.** And the LYMPHOCYTE (120 h, time 5 day)?
**A.** 56.63%

**Q.** And the “MEAN CORPUSCULAR HEMOGLOBIN” value (120 h, time 5 day)?
**A.** 20.2 pg

**Q.** What about the “MEAN CORPUSCULAR HEMOGLOBIN CONCENTRATION” value (120 h, time 5 day) of the same molecule?
**A.** 31.37 G/DL

**Q.** What about the “MEAN CORPUSCULAR VOLUME” value (120 h, time 5 day) of the same molecule?
**A.** 64.53 fL

**Q.** And the MONOCYTE (120 h, time 5 day)?
**A.** 5.23%

**Q.** What about the NEUTROPHIL (120 h, time 5 day) of the same molecule?
**A.** 35.47%

**Q.** What about the “PLATELET COUNT” value (120 h, time 5 day) of the same molecule?
**A.** 1464.67 x10E3/uL

**Q.** And the “ALANINE AMINOTRANSFERASE” value (120 h, time 5 day)?
**A.** 36.33 u/L

**Q.** What about the ALBUMIN (120 h, time 5 day) of the same molecule?
**A.** 3.33 G/DL

**Q.** What about the “ALKALINE PHOSPHATASE” value (120 h, time 5 day) of the same molecule?
**A.** 202.33 u/L

**Q.** And the “ASPARTATE AMINOTRANSFERASE” value (120 h, time 5 day)?
**A.** 71 u/L

**Q.** And the “BLOOD UREA NITROGEN” value (120 h, time 5 day)?
**A.** 15 mg/dL

**Q.** And the “CARBON DIOXIDE” value (120 h, time 5 day)?
**A.** 23.67 mmol/L

**Q.** And the CHLORIDE (120 h, time 5 day)?
**A.** 110.33 MEQ/L

**Q.** What about the CHOLESTEROL (120 h, time 5 day) of the same molecule?
**A.** 106 mg/dL

**Q.** And the “CREATINE PHOSPHOKINASE” value (120 h, time 5 day)?
**A.** 207.67 u/L

**Q.** What about the CREATININE (120 h, time 5 day) of the same molecule?
**A.** 0.27 mg/dL

**Q.** And the GLUCOSE (120 h, time 5 day)?
**A.** 140 mg/dL

**Q.** What about the “LACTATE DEHYDROGENASE” value (120 h, time 5 day) of the same molecule?
**A.** 58 u/L

**Q.** What about the LIPASE (120 h, time 5 day) of the same molecule?
**A.** 40.33 u/L

**Q.** What about the PHOSPHORUS (120 h, time 5 day) of the same molecule?
**A.** 11.4 mg/dL

**Q.** And the POTASSIUM (120 h, time 5 day)?
**A.** 5.6 MEQ/L

**Q.** What about the SODIUM (120 h, time 5 day) of the same molecule?
**A.** 152.33 MEQ/L

**Q.** And the “TOTAL BILIRUBIN” value (120 h, time 5 day)?
**A.** 0.23 mg/dL

**Q.** What about the “TOTAL PROTEIN” value (120 h, time 5 day) of the same molecule?
**A.** 5.37 G/DL

**Q.** And the “URIC ACID” value (120 h, time 5 day)?
**A.** 1.73 mg/dL

**Q.** And the BASOPHIL ([…], time 14 day)?
**A.** 0.9%

**Q.** What about the EOSINOPHIL ([…], time 14 day) of the same molecule?
**A.** 0.5%

**Q.** What about the “ERYTHROCYTE COUNT” value ([…], time 14 day) of the same molecule?
**A.** 7.34 x10E6/uL

**Q.** What about the HEMATOCRIT ([…], time 14 day) of the same molecule?
**A.** 43.1%

**Q.** What about the HEMOGLOBIN ([…], time 14 day) of the same molecule?
**A.** 14.5 G/DL

**Q.** And the “LEUKOCYTE COUNT” value ([…], time 14 day)?
**A.** 33.86 x10E3/uL

**Q.** And the LYMPHOCYTE ([…], time 14 day)?
**A.** 32.7%

**Q.** What about the “MEAN CORPUSCULAR HEMOGLOBIN” value ([…], time 14 day) of the same molecule?
**A.** 19.8 pg

**Q.** And the “MEAN CORPUSCULAR HEMOGLOBIN CONCENTRATION” value ([…], time 14 day)?
**A.** 33.6 G/DL

**Q.** What about the “MEAN CORPUSCULAR VOLUME” value ([…], time 14 day) of the same molecule?
**A.** 58.8 fL

**Q.** And the MONOCYTE ([…], time 14 day)?
**A.** 5.2%

**Q.** What about the NEUTROPHIL ([…], time 14 day) of the same molecule?
**A.** 59.1%

**Q.** And the “PLATELET COUNT” value ([…], time 14 day)?
**A.** 2095 x10E3/uL

**Q.** What about the “ALANINE AMINOTRANSFERASE” value ([…], time 14 day) of the same molecule?
**A.** 40 u/L

**Q.** What about the ALBUMIN ([…], time 14 day) of the same molecule?
**A.** 3.6 G/DL

**Q.** What about the “ALKALINE PHOSPHATASE” value ([…], time 14 day) of the same molecule?
**A.** 220 u/L

**Q.** And the “ASPARTATE AMINOTRANSFERASE” value ([…], time 14 day)?
**A.** 68 u/L

**Q.** And the “BLOOD UREA NITROGEN” value ([…], time 14 day)?
**A.** 13 mg/dL

**Q.** What about the “CARBON DIOXIDE” value ([…], time 14 day) of the same molecule?
**A.** 31 mmol/L

**Q.** And the CHLORIDE ([…], time 14 day)?
**A.** 101 MEQ/L

**Q.** And the CHOLESTEROL ([…], time 14 day)?
**A.** 116 mg/dL

**Q.** What about the “CREATINE PHOSPHOKINASE” value ([…], time 14 day) of the same molecule?
**A.** 267 u/L

**Q.** And the CREATININE ([…], time 14 day)?
**A.** 0.4 mg/dL

**Q.** And the GLUCOSE ([…], time 14 day)?
**A.** 145 mg/dL

**Q.** What about the “LACTATE DEHYDROGENASE” value ([…], time 14 day) of the same molecule?
**A.** 109 u/L

**Q.** What about the LIPASE ([…], time 14 day) of the same molecule?
**A.** 33 u/L

**Q.** And the PHOSPHORUS ([…], time 14 day)?
**A.** 9.2 mg/dL

**Q.** And the POTASSIUM ([…], time 14 day)?
**A.** 6.6 MEQ/L

**Q.** What about the SODIUM ([…], time 14 day) of the same molecule?
**A.** 147 MEQ/L

**Q.** What about the “TOTAL BILIRUBIN” value ([…], time 14 day) of the same molecule?
**A.** 0.5 mg/dL

**Q.** What about the “TOTAL PROTEIN” value ([…], time 14 day) of the same molecule?
**A.** 5.7 G/DL

**Q.** What about the “URIC ACID” value ([…], time 14 day) of the same molecule?
**A.** 2.5 mg/dL
